In this series the test system is CCRIS mutagenicity, Ames/micronucleus/aberration tests. Briefly: CCRIS mutagenicity studies.
The mark [1] stands for this setting: Test System: AMES SALMONELLA TYPHIMURIUM, Strain/Indicator: TA98, Metabolic Activation: NONE, Method: STANDARD PLATE.
[2] abbreviates: Test System: AMES SALMONELLA TYPHIMURIUM, Strain/Indicator: TA100, Metabolic Activation: NONE, Method: STANDARD PLATE.
[3] abbreviates: Test System: AMES SALMONELLA TYPHIMURIUM, Strain/Indicator: TA100, Metabolic Activation: RAT, LIVER, S-9, AROCLOR 1254, Method: STANDARD PLATE.
Setting [4] is: Test System: AMES SALMONELLA TYPHIMURIUM, Strain/Indicator: TA98, Metabolic Activation: NONE, Method: PREINCUBATION
The mark [5] stands for this setting: Test System: AMES SALMONELLA TYPHIMURIUM, Strain/Indicator: TA98, Metabolic Activation: RAT LIVER S-9, PHENOBARBITAL AND BETA-NAPHTHOFLAVONE, Method: PREINCUBATION
[6] abbreviates: Test System: AMES SALMONELLA TYPHIMURIUM, Strain/Indicator: TA100, Metabolic Activation: NONE, Method: PREINCUBATION
The mark [7] stands for this setting: Test System: AMES SALMONELLA TYPHIMURIUM, Strain/Indicator: TA100, Metabolic Activation: RAT LIVER S-9, PHENOBARBITAL AND BETA-NAPHTHOFLAVONE, Method: PREINCUBATION
The mark [8] stands for this setting: Test System: AMES SALMONELLA TYPHIMURIUM, Strain/Indicator: TA1535, Metabolic Activation: NONE, Method: PREINCUBATION
[9] abbreviates: Test System: AMES SALMONELLA TYPHIMURIUM, Strain/Indicator: TA1535, Metabolic Activation: RAT LIVER S-9, PHENOBARBITAL AND BETA-NAPHTHOFLAVONE, Method: PREINCUBATION
Setting [10] is: Test System: AMES SALMONELLA TYPHIMURIUM, Strain/Indicator: TA1537, Metabolic Activation: NONE, Method: PREINCUBATION
Where [11] appears, read: Test System: AMES SALMONELLA TYPHIMURIUM, Strain/Indicator: TA1537, Metabolic Activation: RAT LIVER S-9, PHENOBARBITAL AND BETA-NAPHTHOFLAVONE, Method: PREINCUBATION

Each structure is given as a SMILES string. Calls of active or inactive are those of the source. The rule behind the calls is not given here.

As for `N=C1C=CC(=C(c2ccc(N)cc2)c2ccc(N)cc2)C=C1`, the mutagenic call (End Point: IN VITRO CHROMOSOMAL ABERRATIONS, Test System: CHO CELLS, Metabolic Activation: NONE) is “inactive; negative”; the mutagenic call (End Point: IN VITRO CHROMOSOMAL ABERRATIONS, Test System: CHO CELLS, Metabolic Activation: RAT, LIVER, S-9, AROCLOR 1254) was “inactive; negative”; the mutagenic call (Test System: AMES SALMONELLA TYPHIMURIUM, Strain/Indicator: TA97, Metabolic Activation: NONE, Method: STANDARD PLATE) is “inactive; negative”; the mutagenic call (Test System: AMES SALMONELLA TYPHIMURIUM, Strain/Indicator: TA97, Metabolic Activation: RAT, LIVER, S-9, AROCLOR 1254, Method: STANDARD PLATE) is “active; positive”; the mutagenic call (Test System: AMES SALMONELLA TYPHIMURIUM, Strain/Indicator: TA97A, Metabolic Activation: NONE, Method: STANDARD PLATE) is “inactive; negative”; the mutagenic call (Test System: AMES SALMONELLA TYPHIMURIUM, Strain/Indicator: TA97A, Metabolic Activation: RAT, LIVER, S-9, AROCLOR 1254, Method: STANDARD PLATE) is “inactive; negative”. Also, the mutagenic call is “active; positive” (Test System: AMES SALMONELLA TYPHIMURIUM, Strain/Indicator: TA98, Metabolic Activation: HAMSTER, LIVER, S-9, AROCLOR 1254, Method: STANDARD PLATE); “active; positive” under setting [1]; “active; positive” (Test System: AMES SALMONELLA TYPHIMURIUM, Strain/Indicator: TA98, Metabolic Activation: RAT, LIVER, S-9, AROCLOR 1254, Method: STANDARD PLATE); “active; positive” (Test System: AMES SALMONELLA TYPHIMURIUM, Strain/Indicator: TA100, Metabolic Activation: HAMSTER, LIVER, S-9, AROCLOR 1254, Method: STANDARD PLATE); “active; positive” under setting [2]; “active; positive” under setting [3]. Moreover, the mutagenic call is, setting by setting: (Test System: AMES SALMONELLA TYPHIMURIUM, Strain/Indicator: TA1535, Metabolic Activation: HAMSTER, LIVER, S-9, AROCLOR 1254, Method: STANDARD PLATE) “inactive; negative”; (Test System: AMES SALMONELLA TYPHIMURIUM, Strain/Indicator: TA1535, Metabolic Activation: NONE, Method: STANDARD PLATE) “inactive; negative”; (Test System: AMES SALMONELLA TYPHIMURIUM, Strain/Indicator: TA1535, Metabolic Activation: RAT, LIVER, S-9, AROCLOR 1254, Method: STANDARD PLATE) “inactive; negative”; (Test System: AMES SALMONELLA TYPHIMURIUM, Strain/Indicator: TA1537, Metabolic Activation: HAMSTER, LIVER, S-9, AROCLOR 1254, Method: STANDARD PLATE) “inactive; negative”; (Test System: AMES SALMONELLA TYPHIMURIUM, Strain/Indicator: TA1537, Metabolic Activation: NONE, Method: STANDARD PLATE) “inactive; negative”; (Test System: AMES SALMONELLA TYPHIMURIUM, Strain/Indicator: TA1537, Metabolic Activation: RAT, LIVER, S-9, AROCLOR 1254, Method: STANDARD PLATE) “inactive; negative”. In addition, the mutagenic call was “inactive; negative” (Test System: E. COLI, Strain/Indicator: WP2 UVRA, Metabolic Activation: HAMSTER, LIVER, S-9, AROCLOR 1254, Method: STANDARD PLATE); “inactive; negative” (Test System: E. COLI, Strain/Indicator: WP2 UVRA, Metabolic Activation: HAMSTER, LIVER, S-9, Method: STANDARD PLATE); “inactive; negative” (Test System: E. COLI, Strain/Indicator: WP2 UVRA, Metabolic Activation: MOUSE, LIVER, S-9, AROCLOR 1254, Method: STANDARD PLATE); “inactive; negative” (Test System: E. COLI, Strain/Indicator: WP2 UVRA, Metabolic Activation: MOUSE, LIVER, S-9, Method: STANDARD PLATE); “inactive; negative” (Test System: E. COLI, Strain/Indicator: WP2 UVRA, Metabolic Activation: NONE, Method: STANDARD PLATE); “inactive; negative” (Test System: E. COLI, Strain/Indicator: WP2 UVRA, Metabolic Activation: RAT, LIVER, S-9, AROCLOR 1254, Method: STANDARD PLATE). In addition, the mutagenic call is “inactive; negative” (Test System: E. COLI, Strain/Indicator: WP2 UVRA, Metabolic Activation: RAT, LIVER, S-9, Method: STANDARD PLATE); “active; positive” (Test System: MOUSE LYMPHOMA, Strain/Indicator: L5178Y (TK+/TK-), Metabolic Activation: NONE, Method: SUSPENSION/PLATE); “active; positive” (Test System: MOUSE LYMPHOMA, Strain/Indicator: L5178Y (TK+/TK-), Metabolic Activation: RAT, LIVER, S-9, AROCLOR 1254, Method: SUSPENSION/PLATE).
In the case of `O[C@H]1C=Cc2c(ccc3ncccc23)[C@@H]1O`, under setting [3], the mutagenic call is “inactive; negative”.
As for `Cc1c2c(c(C)c3c1ccc1ccccc13)[C@@H]1OC1[C@@H](O)[C@@H]2O` (some centres not stated), the mutagenic call (Test System: CHINESE HAMSTER V-79, Strain/Indicator: V-79/OUABAIN, Metabolic Activation: CELL-MEDIATED, Method: STANDARD PLATE) is “active; positive”.
As for `COC(=O)CC(=O)OC`, the mutagenic call under setting [4] was “inactive; negative”; the mutagenic call under setting [5] was “inactive; negative”; the mutagenic call under setting [6] was “inactive; negative”; the mutagenic call under setting [7] is “inactive; negative”; the mutagenic call under setting [8] was “inactive; negative”; the mutagenic call under setting [9] was “inactive; negative”. The mutagenic call reads like this: under setting [10], “inactive; negative”; under setting [11], “inactive; negative”; (Test System: E.COLI, Strain/Indicator: WP2UVRA/PKM101, Metabolic Activation: NONE, Method: PREINCUBATION) “inactive; negative”; (Test System: E.COLI, Strain/Indicator: WP2UVRA/PKM101, Metabolic Activation: RAT LIVER S-9, PHENOBARBITAL AND BETA-NAPHTHOFLAVONE, Method: PREINCUBATION) “inactive; negative”.
Take `Sc1ccccc1`: the mutagenic call by setting is: under setting [4], “inactive; negative”; under setting [5], “inactive; negative”; under setting [6], “inactive; negative”; under setting [7], “inactive; negative”; under setting [8], “inactive; negative”; under setting [9], “inactive; negative”. Besides, the mutagenic call under setting [10] was “inactive; negative”; the mutagenic call under setting [11] was “inactive; negative”; the mutagenic call (Test System: AMES SALMONELLA TYPHIMURIUM, Strain/Indicator: TA1538, Metabolic Activation: NONE, Method: PREINCUBATION) is “inactive; negative”; the mutagenic call (Test System: AMES SALMONELLA TYPHIMURIUM, Strain/Indicator: TA1538, Metabolic Activation: RAT LIVER S-9, PHENOBARBITAL AND BETA-NAPHTHOFLAVONE, Method: PREINCUBATION) was “inactive; negative”; the mutagenic call (Test System: E.COLI, Strain/Indicator: WP2UVRA, Metabolic Activation: NONE, Method: PREINCUBATION) was “active; positive”; the mutagenic call (Test System: E.COLI, Strain/Indicator: WP2UVRA, Metabolic Activation: RAT LIVER S-9, PHENOBARBITAL AND BETA-NAPHTHOFLAVONE, Method: PREINCUBATION) is “inactive; negative”.
On to `CC(=O)N(O)c1ccc2c(ccc3ccccc32)c1`, for which, under “Test System: UDS HUMAN FIBROBLASTS, Strain/Indicator: THY INCORP (NON-S-PHASE), Metabolic Activation: NONE, Method: AUTORADIOGRAPHY”, the mutagenic call was “active; positive”.
As to `O=[N+]([O-])c1cc(-c2ccc(O)c([N+](=O)[O-])c2)ccc1O`, the mutagenic call under setting [4] was “inactive; negative”.
`Nc1nc2c(ncn2COC(CO)CO)c(=O)[nH]1`: the mutagenic call (End Point: IN VITRO CHROMOSOMAL ABERRATIONS, Test System: CHO CELLS (CHO-HSVTK), Metabolic Activation: NONE) was “active; positive (structural changes); concentration chosen also induced apoptosis”.
Turning to `NC(=O)Oc1ccccc1`, the mutagenic call (Test System: E. COLI, Strain/Indicator: WP2 UVRA, Metabolic Activation: NONE, Method: FLUCTUATION TEST) was “inactive; negative”.
As for `CCOC1=CC(=O)C(NC(C)=O)=CC1=O`, the mutagenic call by setting is: under setting [1], “active; positive”; under setting [2], “active; positive”.
